Measured values reported in ChEMBL document CHEMBL1144615, “Neuroprotective effects of kobophenol A against the withdrawal of tropic support, nitrosative stress, and mitochondrial damage in SH-SY5Y neuroblastoma cells” (2007).
Active and inactive are the calls of the source. The rule behind the calls is not given here.

Tests used:
Caspase-3 (Homo sapiens) [1] = biological target: T1, Caspase-3 (Homo sapiens) (UniProt P42574); assay: Decrease in sodium nitroprusside-induced caspase-3 activity in SH-SY5Y cells; format: cell-based
T1 sequence (whole entry): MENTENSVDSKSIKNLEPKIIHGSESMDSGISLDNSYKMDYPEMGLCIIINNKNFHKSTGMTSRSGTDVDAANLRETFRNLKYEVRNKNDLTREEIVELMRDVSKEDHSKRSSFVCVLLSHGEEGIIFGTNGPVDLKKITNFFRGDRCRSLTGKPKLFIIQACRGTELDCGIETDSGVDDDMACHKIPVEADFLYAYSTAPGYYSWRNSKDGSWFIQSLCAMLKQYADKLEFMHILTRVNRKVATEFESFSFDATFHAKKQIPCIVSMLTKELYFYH

SH-SY5Y [2] = assay: Increase in cell viability of SH-SY5Y cells in serum starved conditions at 10 ug/mL after 48 hrs by MTT assay relative to control; format: functional, Homo sapiens
SH-SY5Y [3] = assay: Inhibition of 2 mM paraquat-induced cell death in SH-SY5Y cells assessed as increase in cell viability at 10 ug/mL after 24 hrs by MTT assay relative to control; format: functional, Homo sapiens
SH-SY5Y [4] = assay: Reduction of nitric oxide-induced intracellular calcium level in SH-SY5Y cells; format: functional, cell-based; conditions: Homo sapiens
Caspase-3 (Homo sapiens) [5] = biological target: T1, Caspase-3 (Homo sapiens); assay: Decrease in paraquat-induced caspase-3 activity in SH-SY5Y cells; format: cell-based
SH-SY5Y [6] = assay: Inhibition of 2 mM paraquat-induced cell death in SH-SY5Y cells assessed as increase in cell viability at 30 ug/mL after 24 hrs by MTT assay relative to control; format: functional, Homo sapiens
SH-SY5Y [7] = assay: Effect on 2 mM paraquat-induced intracellular calcium level in SH-SY5Y cells after 24 hrs relative to contro; format: functional, Homo sapiens
SH-SY5Y [8] = assay: Reduction of paraquat-induced cell death in SH-SY5Y cells assessed as subG1 DNA content relative to control; format: functional, cell-based; conditions: Homo sapiens
SH-SY5Y [9] = assay: Inhibition of 2 mM paraquat-induced cell death in SH-SY5Y cells assessed as increase in cell viability at 20 ug/mL after 24 hrs by MTT assay relative to control; format: functional, Homo sapiens
SH-SY5Y [10] = assay: Effect on sodium nitroprusside-induced intracellular calcium level in SH-SY5Y cells after 8 hrs relative to control; format: functional, Homo sapiens
SH-SY5Y [11] = assay: Reduction on sodium nitroprusside-induced ROS production in SH-SY5Y cells; format: functional, Homo sapiens; design: scale not given: the % may be the effect or the level left
SH-SY5Y [12] = assay: Reduction of sodium nitroprusside-induced nitric oxide production in SH-SY5Y cells; format: functional, cell-based; conditions: Homo sapiens
SH-SY5Y [13] = assay: Inhibition of 3 mM sodium nitroprusside-induced cell death in SH-SY5Y cells assessed as increase in cell viability at 30 ug/mL after 24 hrs by MTT assay relative to control; format: functional, Homo sapiens
Caspase-9 (Homo sapiens) [14] = biological target: T2, Caspase-9 (Homo sapiens) (UniProt P55211); assay: Decrease in paraquat-induced caspase 9 activity in SH-SY5Y cells; format: cell-based
T2 sequence (whole entry): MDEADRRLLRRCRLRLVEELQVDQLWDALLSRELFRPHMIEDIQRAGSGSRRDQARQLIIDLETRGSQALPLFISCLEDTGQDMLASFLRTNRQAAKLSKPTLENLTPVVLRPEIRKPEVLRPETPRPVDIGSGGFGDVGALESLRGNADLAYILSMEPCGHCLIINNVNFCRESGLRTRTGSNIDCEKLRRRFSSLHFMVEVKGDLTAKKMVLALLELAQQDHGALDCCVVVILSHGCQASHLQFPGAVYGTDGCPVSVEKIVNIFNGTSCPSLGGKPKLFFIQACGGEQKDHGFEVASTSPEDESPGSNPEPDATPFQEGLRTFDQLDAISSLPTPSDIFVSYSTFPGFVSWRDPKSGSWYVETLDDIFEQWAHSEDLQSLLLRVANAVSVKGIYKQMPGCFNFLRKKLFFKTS

SH-SY5Y [15] = assay: Effect on 2 mM paraquat-induced intracellular calcium level in SH-SY5Y cells after 8 hrs relative to control; format: functional, Homo sapiens
Caspase-9 (Homo sapiens) [16] = biological target: T2, Caspase-9 (Homo sapiens); assay: Decrease in sodium nitroprusside-induced caspase 9 activity in SH-SY5Y cells; format: cell-based
SH-SY5Y [17] = assay: Effect on sodium nitroprusside-induced intracellular calcium level in SH-SY5Y cells after 25 hrs relative to control; format: functional, Homo sapiens
SH-SY5Y [18] = assay: Inhibition of 1 mM sodium nitroprusside-induced cell death in SH-SY5Y cells assessed as increase in cell viability at 30 ug/mL after 24 hrs by MTT assay relative to control; format: functional, Homo sapiens
SH-SY5Y [19] = assay: Inhibition of 5 mM sodium nitroprusside-induced cell death in SH-SY5Y cells assessed as increase in cell viability at 30 ug/mL after 24 hrs by MTT assay relative to control; format: functional, Homo sapiens
SH-SY5Y [20] = assay: Increase in cell viability of SH-SY5Y cells in serum starved conditions at 20 ug/mL after 48 hrs by MTT assay relative to control; format: functional, Homo sapiens
SH-SY5Y [21] = assay: Effect on 3 mM sodium nitroprusside-induced mitochondrial transmembrane potential level in SH-SY5Y cells after 8 hrs; format: functional, Homo sapiens
SH-SY5Y [22] = assay: Reduction of sodium nitroprusside-induced cell death in SH-SY5Y cells assessed as subG1 DNA content relative to control; format: functional, cell-based; conditions: Homo sapiens
SH-SY5Y [23] = assay: Increase in cell viability of SH-SY5Y cells in serum starved conditions at 30 ug/mL after 48 hrs by MTT assay relative to control; format: functional, Homo sapiens
SH-SY5Y [24] = assay: Reduction on paraquat-induced ROS production in SH-SY5Y cells; format: functional, Homo sapiens; design: scale not given: the % may be the effect or the level left
SH-SY5Y [25] = assay: Effect on 3 mM sodium nitroprusside-induced mitochondrial transmembrane potential level in SH-SY5Y cells after 24 hrs; format: functional, Homo sapiens

With `Oc1ccc([C@H]2Oc3cc(O)cc([C@@H]4[C@H](c5cc(O)cc(O)c5)[C@@H](c5ccc(O)cc5)O[C@H]4c4ccc(O)cc4)c3[C@@H]2c2cc(O)c3c(c2)[C@@H](c2cc(O)cc(O)c2)[C@H](c2ccc(O)cc2)O3)cc1` [KOBOPHENOL A] the Activity (Caspase-3 (Homo sapiens) [1]) was “Dose-dependent effect”, the Activity (SH-SY5Y [2]) was 105.7% and the Activity (SH-SY5Y [3]) was 66.3%. For the same compound, the Activity (SH-SY5Y [4]) was “Active”, the Activity (Caspase-3 (Homo sapiens) [5]) was “Active” and the Activity (SH-SY5Y [6]) was 102.5%. For the same compound, the Activity (SH-SY5Y [7]) was 98.3%, the Activity (SH-SY5Y [8]) was “Active” and the Activity (SH-SY5Y [9]) was 85.6%. For the same compound, the Activity (SH-SY5Y [10]) was 96.1%, the Activity (SH-SY5Y [11]) was 103.4% and the Activity (SH-SY5Y [12]) was “inactive”. The Activity (SH-SY5Y [13]) was 109.8%, the Activity (Caspase-9 (Homo sapiens) [14]) was “Dose-dependent effect” and the Activity (SH-SY5Y [15]) was 99.1%. The Activity (Caspase-9 (Homo sapiens) [16]) was “Dose-dependent effect”, the Activity (SH-SY5Y [17]) was 96.1% and the Activity (SH-SY5Y [18]) was 108.6%. For the same compound, the Activity (SH-SY5Y [19]) was 88.1%, the Activity (SH-SY5Y [20]) was 91.4% and the Activity (SH-SY5Y [21]) was 128.3%. The Activity (SH-SY5Y [22]) was “Active”, the Activity (SH-SY5Y [23]) was 78.7% and the Activity (SH-SY5Y [24]) was 103.6%. For the same compound, the Activity (SH-SY5Y [25]) was 119.3%.
